Assay results reported in patent US7563924B2, “9-chloro-15-deoxyprostaglandin derivatives, process for their preparation and their use as medicaments” (Schering Aktiengesellschaft, priority 2005, dated 2009).

Tested on: TNFα release from activated monocytic cells
Test: Cytokine release assay in vitro (TNFα, ELISA)
Format: cell-based, human
Conditions: 1 μM, 18 hours
Method: Human donor monocyte-derived dendritic cells are cultured in RPMI-1640 containing 10% fetal bovine serum for six days in the presence of 10 ng/mL IL-4 and 200 ng/mL GM-CSF. The cells are activated with various activation stimuli: 10 ng/mL LPS (Sigma), 5 μg/mL recombinant human CD-40 ligand (R&D Systems), or 5 μM Human CpG-DNA (HyCult Biotechnology) in the presence of prostaglandin E2 (PGE2) (1 μM), vehicle control (DMSO) or test substances (1 μM) for 18 hours. The levels of cell culture supernatant TNFα for individual donors is measured by commercial ELISA kits.

CCCCC[C@H](O)/C=C/[C@H]1[C@H](O)CC(=O)[C@@H]1C/C=C\CCCC(=O)O [PGE2, Prostaglandin E2]
TNFα (CD40 ligand, Donor 3): 147.9 pg/mL
TNFα (CD40 ligand, Donor 4): 87.0 pg/mL
TNFα (CD40 ligand, Donor 6): 54.2 pg/mL
TNFα (CpG, Donor 1): 104.5 pg/mL
TNFα (CpG, Donor 3): 70.0 pg/mL
TNFα (CpG, Donor 6): 106.2 pg/mL
TNFα (LPS, Donor 4): 0.0 pg/mL
TNFα (LPS, Donor 6): 174.8 pg/mL
